Measured values as given in ChEMBL document CHEMBL1156882, “5-OMe-UDP is a potent and selective P2Y(6)-receptor agonist” (J Med Chem, 2010).
Blank lines part the entries; values can stand above or below the compound they belong to.

Key:
Type in all cases: functional, cell-based
P2Y purinoceptor 2 [1] = biological target: T1, P2Y purinoceptor 2 (Homo sapiens, UniProt P41231); test: Agonist activity at human P2Y2 receptor expressed in human 1321N1 cells assessed as calcium elevation by fura2/AM assay
P2Y purinoceptor 4 [2] = biological target: T2, P2Y purinoceptor 4 (Homo sapiens, UniProt P51582); test: Agonist activity at human P2Y4 receptor expressed in human 1321N1 cells assessed as concentration required to 50% maximal response of compound 3 at 10 uM by fura2/AM assay
P2Y purinoceptor 6 [3] = biological target: T3, P2Y purinoceptor 6 (Homo sapiens, UniProt Q15077); test: Agonist activity at human P2Y6 receptor expressed in human 1321N1 cells assessed as calcium elevation at 10 uM by fura2/AM assay
P2Y purinoceptor 4 [4] = biological target: T2, P2Y purinoceptor 4; test: Agonist activity at human P2Y4 receptor expressed in human 1321N1 cells assessed as calcium elevation by fura2/AM assay
P2Y purinoceptor 6 [5] = biological target: T3, P2Y purinoceptor 6; test: Agonist activity at human P2Y6 receptor expressed in human 1321N1 cells assessed as calcium elevation by fura2/AM assay
P2Y purinoceptor 2 [6] = biological target: T1, P2Y purinoceptor 2; test: Agonist activity at human P2Y2 receptor expressed in human 1321N1 cells assessed as concentration required to 50% maximal response of compound 3 at 10 uM by fura2/AM assay
P2Y purinoceptor 6 [7] = biological target: T3, P2Y purinoceptor 6; test: Agonist activity at human P2Y6 receptor expressed in human 1321N1 cells assessed as concentration required to 50% maximal response of compound 3 at 10 uM by fura2/AM assay
P2Y purinoceptor 4 [8] = biological target: T2, P2Y purinoceptor 4; test: Agonist activity at human P2Y4 receptor expressed in human 1321N1 cells assessed as calcium elevation at 10 uM by fura2/AM assay
P2Y purinoceptor 2 [9] = biological target: T1, P2Y purinoceptor 2; test: Agonist activity at human P2Y2 receptor expressed in human 1321N1 cells assessed as calcium elevation at 10 uM by fura2/AM assay
P2Y purinoceptor 2 [10] = biological target: P2Y purinoceptor 2 (Mus musculus, UniProt P35383); test: Agonist activity at mouse P2Y2 receptor expressed in human 1321N1 cells assessed as calcium elevation by fura2/AM assay
P2Y purinoceptor 2 (Mus musculus, UniProt P35383), sequence (P35383 whole entry): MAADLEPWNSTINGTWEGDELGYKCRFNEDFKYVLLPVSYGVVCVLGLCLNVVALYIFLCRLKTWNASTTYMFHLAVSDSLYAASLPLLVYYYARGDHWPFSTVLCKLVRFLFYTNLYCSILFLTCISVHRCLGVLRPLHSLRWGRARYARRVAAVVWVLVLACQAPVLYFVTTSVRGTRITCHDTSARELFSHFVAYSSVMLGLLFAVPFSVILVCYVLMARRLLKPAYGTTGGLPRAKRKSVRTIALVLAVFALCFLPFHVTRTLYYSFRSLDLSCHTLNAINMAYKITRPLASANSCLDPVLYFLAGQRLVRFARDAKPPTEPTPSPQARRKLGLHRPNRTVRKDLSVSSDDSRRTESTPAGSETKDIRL

T1 sequence (P41231 whole entry): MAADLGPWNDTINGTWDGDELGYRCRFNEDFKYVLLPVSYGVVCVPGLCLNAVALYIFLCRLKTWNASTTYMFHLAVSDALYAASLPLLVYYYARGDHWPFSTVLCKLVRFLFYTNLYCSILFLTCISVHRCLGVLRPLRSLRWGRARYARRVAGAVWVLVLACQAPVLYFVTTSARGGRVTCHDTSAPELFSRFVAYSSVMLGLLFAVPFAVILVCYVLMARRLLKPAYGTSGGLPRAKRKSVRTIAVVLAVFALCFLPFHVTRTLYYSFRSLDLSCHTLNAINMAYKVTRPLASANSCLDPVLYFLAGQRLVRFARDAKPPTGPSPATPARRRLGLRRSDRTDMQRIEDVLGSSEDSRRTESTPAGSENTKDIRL
T2 sequence (P51582 whole entry): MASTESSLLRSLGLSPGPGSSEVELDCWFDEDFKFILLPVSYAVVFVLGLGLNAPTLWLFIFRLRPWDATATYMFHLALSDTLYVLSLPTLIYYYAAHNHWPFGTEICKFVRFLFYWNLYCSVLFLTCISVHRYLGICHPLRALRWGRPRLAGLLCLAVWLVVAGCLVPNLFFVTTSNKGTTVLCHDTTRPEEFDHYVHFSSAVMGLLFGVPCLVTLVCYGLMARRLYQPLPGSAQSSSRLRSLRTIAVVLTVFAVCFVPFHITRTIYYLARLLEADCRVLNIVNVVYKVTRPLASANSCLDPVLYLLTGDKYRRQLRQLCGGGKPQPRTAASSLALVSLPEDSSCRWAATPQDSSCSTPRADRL
T3 sequence (Q15077 whole entry): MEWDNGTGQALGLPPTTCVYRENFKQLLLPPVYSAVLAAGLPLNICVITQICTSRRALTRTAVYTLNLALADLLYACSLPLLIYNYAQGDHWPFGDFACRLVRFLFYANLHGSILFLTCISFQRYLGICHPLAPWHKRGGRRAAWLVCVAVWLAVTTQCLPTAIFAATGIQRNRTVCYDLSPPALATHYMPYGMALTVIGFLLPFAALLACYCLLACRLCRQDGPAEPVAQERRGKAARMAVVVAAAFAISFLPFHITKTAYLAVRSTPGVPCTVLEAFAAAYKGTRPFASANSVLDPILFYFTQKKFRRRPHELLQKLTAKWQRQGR

SMILES: O=c1ccn([C@@H]2O[C@H](COP(=O)(O)OP(=O)(O)OP(=O)(O)OP(=O)(O)OC[C@H]3O[C@@H](n4ccc(=O)[nH]c4=O)[C@H](O)[C@@H]3O)C3OC(Cc4ccccc4)OC32)c(=O)[nH]1 (stereo partly drawn)
EC50 (P2Y purinoceptor 6 [5]; read-out: EC50): 140 nM

SMILES: O=c1[nH]c(=O)n([C@@H]2O[C@H](COP(=O)(O)OP(=O)(O)O)[C@@H](O)[C@H]2O)cc1I
EC50 (P2Y purinoceptor 6 [5]; read-out: EC50): 13 nM

SMILES: O=c1cc(Sc2ccccc2)n([C@@H]2O[C@H](COP(=O)(O)OP(=O)(O)OP(=O)(O)O)[C@@H](O)[C@H]2O)c(=O)[nH]1
EC50 (P2Y purinoceptor 2 [1]; 1321-n1): Not Active
EC50 (P2Y purinoceptor 4 [4]; 1321-n1): Not Active
EC50 (P2Y purinoceptor 6 [5]; 1321-n1): Not Active

SMILES: COc1cc(=O)[nH]c(=O)n1[C@@H]1O[C@H](COP(=O)(O)OP(=O)(O)OP(=O)(O)O)[C@@H](O)[C@H]1O
EC50 (P2Y purinoceptor 2 [1]; read-out: EC50): 3000 nM
EC50 (P2Y purinoceptor 4 [4]; 1321-n1): Not Active
EC50 (P2Y purinoceptor 6 [5]; 1321-n1): Not Active

SMILES: O=c1[nH]c(=O)n([C@@H]2O[C@H](COP(=O)(O)OP(=O)(O)S)[C@@H](O)[C@H]2O)cc1Br (stereo partly drawn)
EC50 (P2Y purinoceptor 6 [5]; read-out: EC50): 47 nM

SMILES: O=c1ccn([C@]23C[C@H]2[C@H](COP(=O)(O)OP(=O)(O)O)[C@@H](O)[C@H]3O)c(=O)[nH]1
EC50 (P2Y purinoceptor 6 [5]; read-out: EC50): 230 nM

SMILES: CSc1cc(=O)[nH]c(=O)n1[C@@H]1O[C@H](COP(=O)(O)OP(=O)(O)OP(=O)(O)O)[C@@H](O)[C@H]1O
EC50 (P2Y purinoceptor 2 [9]): Active
EC50 (P2Y purinoceptor 4 [4]; 1321-n1): Not Active
EC50 (P2Y purinoceptor 6 [5]; 1321-n1): Not Active

SMILES: Nc1ccn([C@H]2C[C@H](O)[C@@H](COP(=O)(O)OP(=O)(O)OP(=O)(O)OP(=O)(O)OC[C@H]3O[C@@H](n4ccc(=O)[nH]c4=O)[C@H](O)[C@@H]3O)O2)c(=O)n1 [DENUFOSOL]
EC50 (P2Y purinoceptor 2 [1]; read-out: EC50): 220 nM

SMILES: O=c1ccn([C@@H]2O[C@H](COP(=O)(O)OP(=O)(O)OP(=O)(O)O)[C@@H](O)[C@H]2O)c(=O)[nH]1 [URIDINE TRIPHOSPHATE]
EC50 (P2Y purinoceptor 2 [1]; read-out: EC50): 100 nM
EC50 (P2Y purinoceptor 4 [4]; read-out: EC50): 0.5 µM

SMILES: O=c1ccn([C@@H]2O[C@H](COP(=O)(O)OP(=O)(O)O)[C@@H](O)[C@H]2O)c(=O)[nH]1 [URIDINE_DIPHOSPHATE]
EC50 (P2Y purinoceptor 6 [5]; read-out: EC50): 140 nM

The next lines start with the values.

EC50 (P2Y purinoceptor 2 [1]; read-out: EC50): 6000 nM
EC50 (P2Y purinoceptor 4 [2]): 600 nM
EC50 (P2Y purinoceptor 6 [3]): Active
SMILES: O=c1[nH]c(=O)n([C@@H]2O[C@H](COP(=O)(O)OP(=O)(O)OP(=O)(O)O)[C@@H](O)[C@H]2O)cc1F

EC50 (P2Y purinoceptor 2 [1]; read-out: EC50): 2060 nM
EC50 (P2Y purinoceptor 4 [4]; read-out: EC50): 10 µM
EC50 (P2Y purinoceptor 6 [5]; read-out: EC50): 800 nM
SMILES: O=c1[nH]c(=O)n([C@@H]2O[C@H](COP(=O)(O)OP(=O)(O)OP(=O)(O)O)[C@@H](O)[C@H]2O)cc1Br

EC50 (P2Y purinoceptor 2 [1]; 1321-n1): Not Active
EC50 (P2Y purinoceptor 4 [4]; read-out: EC50): ≥ 20 µM
EC50 (P2Y purinoceptor 6 [5]; read-out: EC50): 80 nM
SMILES: COc1cn([C@@H]2O[C@H](COP(=O)(O)OP(=O)(O)O)[C@@H](O)[C@H]2O)c(=O)[nH]c1=O

EC50 (P2Y purinoceptor 2 [6]): 2000 nM
EC50 (P2Y purinoceptor 4 [2]): 3500 nM
EC50 (P2Y purinoceptor 6 [7]): 10 µM
SMILES: O=c1[nH]c(=O)n([C@@H]2O[C@H](COP(=O)(O)OP(=O)(O)O)[C@@H](O)[C@H]2O)cc1F

EC50 (P2Y purinoceptor 2 [1]; read-out: EC50): 2000 nM
EC50 (P2Y purinoceptor 6 [5]; read-out: EC50): 900 nM
EC50 (P2Y purinoceptor 4 [8]): Active
SMILES: COc1cn([C@@H]2O[C@H](COP(=O)(O)OP(=O)(O)OP(=O)(O)O)[C@@H](O)[C@H]2O)c(=O)[nH]c1=O

EC50 (P2Y purinoceptor 2 [10]): 99 µM
SMILES: CCc1cn([C@@H]2O[C@H](COP(=O)(O)OP(=O)(O)OP(=O)(O)O)[C@@H](O)[C@H]2O)c(=O)[nH]c1=O
